“Also recorded” adds a separate entry of the source. Where no end group is shown, it is not given here.
Assays:
[1] = system: Rat Colitis Model of Ulcerative Colitis; test: Rat colitis model of ulcerative colitis: visual and gross observations; type: in vivo
Protocol: (§1) Rats were vaccinated with a human sTNFR2 peptide, DFALPVEKPLCLOR (SEQ ID NO: 18), targeting the human sTNFR2 peptide. The rats were injected with 25 μg of the peptide subcutaneously with 25 μg Alum as adjuvant in PBS 10 days before initiating colitis. The studies were performed in accordance with the recommendations of the Animal Care and Use Committee of Tbilisi State Medical University. Briefly, the colitis was induced by introduction of 4% acetic acid at 24-hour intervals for three days into the colon under light anesthesia (50 mg/kg ketamine HCl and 5 mg/kg xylaxine). Injections were intrarectal through 2 mm diameter, 6-8 cm long polyethylene catheter to deliver 1 mL solution. See Cagin et al., Exp. Ther. Med. 12 (5): 2958-2964 (2016).
The study design included 4 treatment groups:
Group B: alum only 10 day prior, followed by colitis
Group C: sTNFR2 peptide (SEQ ID NO: 18)+alum 10 day prior, followed by colitis
Group D: no vaccine and no colitis

[2] = Blood coagulation parameters after inferior vena cava ligation; type: in vivo, Lewis rats; details: across doses, result in words
Protocol: (§2) Adult Lewis rats weighing 200-250 g were randomly distributed into three treatment groups with 4 male and 4 female rats in each group. Group 1 received 1.0 mL saline subcutaneously on days 0 and 14. Group 2 received 1.0 mL saline with 0.025 mg AtheroVax peptide (SEQ ID NO: 18) and 0.025 mg aluminum hydroxide adjuvant on days 0 and 14. Group 3 received 1.0 mL saline with 0.075 mg AtheroVax peptide (SEQ ID NO: 18) and 0.075 mg aluminum hydroxide adjuvant on days 0 and 14. […] The abdominal cavity was sutured immediately after the ligation. The rats were euthanized 4 hours after dressing.
(§3) The thrombus was removed from the rats and wet weight determined. In addition, blood was recovered from the rats and coagulation parameters prothrombin time (PT), thrombin time (TT), and fibrinogen were measured.
(§4) Statistical analysis of mean and standard deviation for male, female, and combined values were calculated for each of the coagulation parameters. Pairwise comparisons using the students T-test were performed using Excel. Significance was determined if the p-value is less than 0.05.

IL-6 = IL-6 ELISA in rat colitis model; type: in vivo; details: for tissue resident IL-6: colon tissue
Protocol: as §1
(§5) TNFα and IL-6 cytokines were measured with ELISA kits according to the manufacturer's instructions (Invitrogen). The ELISA plates were developed with tetramethylbenzidine (TMB) substrate and absorbance was read at 450 nm using an ELx808 Ultra Microplate Reader (BioTek Instruments GmbH, Lucerne, Switzerland). […] Reduction in TNFα is consistent with loss of sTNFR2 binding.
(§6) All values reported are mean and standard error of the mean. Group comparisons are either two-tailed t-test or ANOVA calculated using Excel.

TNFα = TNFα ELISA in rat colitis model; type: in vivo; details: for tissue resident TNFα: colon tissue; for reduction in TNFα: vaccinated animals
Protocol: as §1, §5, §6

rat colon tissue = test: Colon histology, rat colitis model; type: in vivo; details: for colon micrographs (H&E, Masson's trichrome): tissue loss and inflammation: administered 10 days prior to initiating colitis, result in words, listed as sTNR2 peptide
Protocol: as §1
Colon samples were fixed in 10% neutral buffered formalin for 24 hours at room temperature and embedded in paraffin. Tissue sections, 5 μm thick, were stained with hematoxylin and eosin (H&E), Masson's trichrome, and Periodic Acid-Schiff (PAS) according to the manufacturer's protocols. Histological evaluation of colons were assigned scores, (a score of 1 is normal and a score of 4 is severe pathology) for the number of animals with pathology >2, average pathology score, pathology distribution, and average inflammatory score (Table 7).

[3] = system: regulatory T cells (Tregs); test: FoxP3 immunohistochemistry of colon, rat ulcerative colitis model; type: in vivo; details: 75 μg peptide and alum adjuvant one week prior to colitis; colon collected 8 days after initiation; vs unvaccinated
Protocol: These studies were performed in accordance with the recommendations of the Animal Care and Use Committee of Tbilisi State Medical University. Colitis was initiated following introduction of 4% acetic acid at 24-hour intervals for three days into colon under light anesthesia (50 mg/kg ketamine HCl and 5 mg/kg xylaxine). Injections were intrarectal through 2 mm diameter, 6-8 cm long polyethylene catheter to deliver 1 mL solution.
Colon samples were fixed in 10% neutral buffered formalin for 24 hours at room temperature and embedded in paraffin. Tissue sections 5 μm thick were stained with hematoxylin and eosin (H&E), Masson's trichrome, and Periodic Acid-Schiff stain (PAS) according to the manufacturer's protocols. The immunohistochemistry utilized a FoxP3 rabbit monoclonal antibody, ab215206, obtained from Abcam (Boston, MA) followed by a goat anti-rabbit secondary antibody conjugated with peroxidase.

thrombus = test: Inferior vena cava ligation thrombus, wet weight; type: in vivo, Lewis rats; details: for Thrombus (wet weight): 4 hours after ligation, saline 0.015 ± 0.001
Protocol: as §2, §3, §4

[4] = circulating blood, vaccinated vs control animals, result in words
[5] = result in words, listed as AtheroVax
[6] = score of 1 is normal, 4 is severe pathology, colitis only group 4

## DFALPVE/KPLCLQR (DFALPVEKPLCLQR; not fully specified; listed as Homo sapiens) [AtheroVax peptide (SEQ ID NO: 18)]
[1]; rats, 25 μg peptide with 25 μg Alum 10 days before colitis
  elevations in body temperature: significantly prevented
[1]; rats, 25 μg peptide with 25 μg Alum 10 days before colitis, visual observations
  loss of body weight: significantly prevented
[1]; rats, peptide + alum 10 days before colitis, compared with Group A (unvaccinated)
  gross colon observations (hyperemic, edematous, thickened, sharply increased volume): not associated
[1]; rats, subcutaneous injection 10 days before 4% acetic acid colitis, peptide 25 μg with 25 μg Alum
  Bleeding: Hemoccult Negative
[1]; rats, subcutaneous injection 10 days before 4% acetic acid colitis, peptide 25 μg with 25 μg Alum, listed as sTNFR2 peptide (SEQ ID NO: 18)+alum
  Stool: Normal
[1]; rats, subcutaneous injection 10 days before 4% acetic acid colitis, peptide 25 μg with 25 μg Alum, listed as sTNR2 peptide (SEQ ID NO: 18)+alum adjuvant
  Stool: normal stools
[1]; vaccinated vs control animals, result in words
  integrity of the colon and outcomes in the rat colitis model: preserved integrity oof the colon and improved outcomes
[2]
  fibrinogen: elevation
  prothrombin times: increased
  thrombin time: decreased
IL-6; ELISA, rat colitis model, injection 10 days before colitis, colitis only group 6.46 ± 0.22
  IL-6 (mean ± SEM): 1.76 ± 0.13
IL-6; [4]
  circulating levels of IL-6: significantly lower
IL-6; result in words
  tissue resident IL-6: significantly lower
IL-6; [5]
  tissue resident IL-6: significant reductions
IL-6; vaccinated animals, result in words
  reduction in IL-6: significant reductions
TNFα; ELISA, rat colitis model, injection 10 days before colitis, colitis only group 29.20 ± 0.65
  TNFα (mean ± SEM): 1.12 ± 0.13
TNFα; [4]
  circulating levels of TNFα: significantly lower
TNFα; result in words
  tissue resident TNFα: significantly lower
  reduction in TNFα: significant reductions
TNFα; [5]
  tissue resident TNFα: significant reductions
TNFα; result in words, listed as sTNFR2 peptide (SEQ ID NO: 18)+alum
  reduction in TNFα: significant reduction
Rat colon tissue
  colon micrographs (H&E, Masson's trichrome): tissue loss and inflammation: significant protection against inflammation
Rat colon tissue; (SEQ ID NO: 18) and alum adjuvant
  colon micrographs (H&E, Masson's trichrome): tissue loss and inflammation: significant protective effect
Rat colon tissue; rat colitis model, colon histology
  Number animals with pathology >2 (1-5): 5
Rat colon tissue; [6]
  Average Inflammatory Score (1-4): 2
  Average Pathology Score (1-4): 1
  Pathology Distribution (1-4): 2
[3]
  intensity of FoxP3 (Treg) staining in colon: less intense; also recorded: do not stain as intensely
  number of FoxP3 positive cells in colon: fewer cells; also recorded: reduced; also recorded: lower frequencies
thrombus; Grp. 2, 25 μg peptide + adjuvant days 0 and 14
  Thrombus (wet weight): 0.011±0.001 grams
thrombus; Grp. 3, 75 μg peptide + adjuvant days 0 and 14
  Thrombus (wet weight): 0.007±0.001 grams
thrombus; across doses, treatment prior to initiation of thrombosis, result in words
  thrombus weight: dose dependent smaller
